Paper PMC6222410, “Design, Synthesis and Docking Studies of Novel Macrocyclic Pentapeptides as Anticancer Multi-Targeted Kinase Inhibitors” (Molecules : A Journal of Synthetic Chemistry and Natural …, 2018)
Read-outs that look alike come from different tables or passages of the source.

How the values were obtained:
[1] = tested on: MCF-7 cell line; test: In vitro cytotoxicity on MCF-7 cell line; format: cell-based; conditions: MCF-7 human breast cancer cells; concentration inhibiting cell viability by 50%; mean of three values; read-out: IC50 (Mean ± SEM) MCF-7
Source text: (§1) In vitro bioassay on human cancer cell lines was adopted against two cancer cell lines (MCF-7 and HepG-2). HepG2, human hepatocellular carcinoma and MCF-7, human breast cancer cell lines were obtained from Sigma-Aldrich Chemie GmbH, Taufkirchen, Germany.

[2] = tested on: HepG-2 cell line; test: In vitro cytotoxicity on HepG-2 cell line; format: cell-based; conditions: HepG-2 human hepatocellular carcinoma cells, concentration inhibiting cell viability by 50%, mean of three values, read-out: IC50 (Mean ± SEM) HepG-2
Source text: as §1

[3] = target: EGFR (Homo sapiens, UniProt P00533); test: In vitro kinase inhibition, ELISA assay; format: biochemical; conditions: mean of three values, read-out: IC50 (Mean±SEM) EGFR
Procedure: The in vitro enzyme inhibition determination for compound 5c was carried out in confirmatory diagnostic unit, Vacsera, Egypt. […]

[4] = target: PDGFRβ (Homo sapiens, UniProt P09619); test: In vitro kinase inhibition, ELISA assay; format: biochemical; conditions: mean of three values, read-out: IC50 (Mean±SEM) PDGFRβ
[5] = target: CDK-2 (Homo sapiens, UniProt P24941); test: In vitro kinase inhibition, ELISA assay; format: biochemical; conditions: mean of three values, read-out: IC50 (Mean±SEM) CDK-2

Chain of EGFR (P00533 25-1210): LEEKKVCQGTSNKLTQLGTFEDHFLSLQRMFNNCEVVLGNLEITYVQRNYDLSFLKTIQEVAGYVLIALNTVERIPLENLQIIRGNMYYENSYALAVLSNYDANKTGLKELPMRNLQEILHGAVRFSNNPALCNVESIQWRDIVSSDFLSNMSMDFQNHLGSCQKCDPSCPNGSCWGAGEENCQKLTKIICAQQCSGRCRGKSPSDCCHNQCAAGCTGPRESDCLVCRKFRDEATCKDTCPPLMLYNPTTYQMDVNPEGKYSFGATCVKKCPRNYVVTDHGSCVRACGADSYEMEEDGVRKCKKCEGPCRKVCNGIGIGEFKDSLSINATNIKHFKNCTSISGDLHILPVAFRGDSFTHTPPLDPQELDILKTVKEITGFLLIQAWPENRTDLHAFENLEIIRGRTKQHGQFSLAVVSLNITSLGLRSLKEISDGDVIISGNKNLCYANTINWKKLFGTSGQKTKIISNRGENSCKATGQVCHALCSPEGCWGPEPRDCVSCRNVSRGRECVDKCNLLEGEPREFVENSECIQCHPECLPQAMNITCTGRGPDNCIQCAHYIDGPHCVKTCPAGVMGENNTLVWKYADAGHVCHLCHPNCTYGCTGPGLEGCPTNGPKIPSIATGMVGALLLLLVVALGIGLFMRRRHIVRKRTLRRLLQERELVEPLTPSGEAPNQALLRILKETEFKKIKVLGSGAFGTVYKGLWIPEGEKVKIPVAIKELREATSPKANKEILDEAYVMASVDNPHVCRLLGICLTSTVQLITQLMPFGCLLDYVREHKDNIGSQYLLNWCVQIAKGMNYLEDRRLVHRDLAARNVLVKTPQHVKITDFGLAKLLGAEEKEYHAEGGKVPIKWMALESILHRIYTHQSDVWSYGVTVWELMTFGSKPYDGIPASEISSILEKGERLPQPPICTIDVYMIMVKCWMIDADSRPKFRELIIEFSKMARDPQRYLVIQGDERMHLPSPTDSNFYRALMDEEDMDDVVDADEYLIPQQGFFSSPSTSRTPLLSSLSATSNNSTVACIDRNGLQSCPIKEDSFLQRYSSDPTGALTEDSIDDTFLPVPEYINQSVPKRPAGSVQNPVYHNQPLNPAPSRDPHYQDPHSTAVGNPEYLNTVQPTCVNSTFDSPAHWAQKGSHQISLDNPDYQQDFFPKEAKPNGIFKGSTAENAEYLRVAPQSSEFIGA
Chain of PDGFRβ (P09619 33-1106): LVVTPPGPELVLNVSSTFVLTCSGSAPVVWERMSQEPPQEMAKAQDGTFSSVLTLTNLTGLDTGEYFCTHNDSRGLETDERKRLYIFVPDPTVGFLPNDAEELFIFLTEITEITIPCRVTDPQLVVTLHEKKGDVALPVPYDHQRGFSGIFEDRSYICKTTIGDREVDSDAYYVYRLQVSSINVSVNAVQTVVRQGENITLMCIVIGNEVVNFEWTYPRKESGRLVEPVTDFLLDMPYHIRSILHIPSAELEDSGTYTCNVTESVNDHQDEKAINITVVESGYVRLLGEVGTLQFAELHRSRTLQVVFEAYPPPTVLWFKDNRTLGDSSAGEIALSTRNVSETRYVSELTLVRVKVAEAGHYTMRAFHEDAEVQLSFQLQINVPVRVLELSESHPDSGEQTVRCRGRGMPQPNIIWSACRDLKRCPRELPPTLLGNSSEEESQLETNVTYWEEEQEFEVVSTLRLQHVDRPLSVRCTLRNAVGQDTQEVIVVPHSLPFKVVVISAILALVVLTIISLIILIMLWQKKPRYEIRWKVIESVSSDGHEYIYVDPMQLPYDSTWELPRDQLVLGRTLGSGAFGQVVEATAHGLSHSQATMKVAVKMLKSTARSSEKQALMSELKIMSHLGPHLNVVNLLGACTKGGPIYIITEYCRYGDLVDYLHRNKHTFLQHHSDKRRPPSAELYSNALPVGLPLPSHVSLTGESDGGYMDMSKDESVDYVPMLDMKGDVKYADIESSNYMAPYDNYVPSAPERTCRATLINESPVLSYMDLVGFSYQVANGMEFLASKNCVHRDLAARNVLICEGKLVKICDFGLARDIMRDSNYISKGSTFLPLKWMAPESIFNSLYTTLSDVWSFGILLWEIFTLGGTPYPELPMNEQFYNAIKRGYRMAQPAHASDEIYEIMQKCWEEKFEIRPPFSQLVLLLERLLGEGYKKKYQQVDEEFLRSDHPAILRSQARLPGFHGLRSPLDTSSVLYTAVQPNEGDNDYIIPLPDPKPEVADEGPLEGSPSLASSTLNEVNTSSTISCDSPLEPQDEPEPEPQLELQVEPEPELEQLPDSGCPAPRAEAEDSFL

SMILES	IC50 [1]	IC50 [2]	melting point	IC50 ([2]; HepG2)	IC50 [3]	IC50 [4]	IC50 [5]
CC[C@H](C)[C@@H]1NC(=O)[C@H](Cc2ccccc2)NC(=O)c2cccc(n2)C(=O)N[C@@H](Cc2ccccc2)C(=O)N[C@@H]([C@@H](C)CC)C(=O)N[C@H](C(=O)OC)CCCCNC1=O [Compound 4c, Cyclo-(N^α-Dipicolinoyl)-bis-[L-Phe-L-ILe]-L-Lys-OMe]	29.2 ± 1.39 µM	18.8 ± 1.47 µM	140 to 142 °C				
CC[C@H](C)[C@@H]1NC(=O)c2cccc(n2)C(=O)N[C@@H]([C@@H](C)CC)C(=O)N[C@@H](Cc2ccccc2)C(=O)N[C@H](C(=O)OC)CCCCNC(=O)[C@H](Cc2ccccc2)NC1=O [Compound 4b, Cyclo-(N^α-Dipicolinoyl)-bis-[L-ILe-L-Phe]-L-Lys-OMe]	10.5 ± 1.33 µM	10.2 ± 2.2 µM	104 to 106 °C				
CC[C@H](C)[C@@H]1NC(=O)[C@H](Cc2ccccc2)NC(=O)c2cccc(n2)C(=O)N[C@@H](Cc2ccccc2)C(=O)N[C@@H]([C@@H](C)CC)C(=O)N[C@H](C(=O)NN)CCCCNC1=O [Compound 6c, Cyclo-(N^α-Dipicolinoyl)-bis[L-Phe-L-ILe]-L-Lys-NHNH2]	> 100 µM	12.1 ± 1.68 µM	208 to 210 °C				
CC[C@H](C)[C@H](NC(=O)[C@H](Cc1ccccc1)NC(=O)c1cccc(C(=O)N[C@@H](Cc2ccccc2)C(=O)N[C@H](C(=O)OC)[C@@H](C)CC)n1)C(=O)OC [Compound 2c, N^α-Dipicolinoyl-bis[L-Phe-L-ILe-methyl ester]]	> 100 µM	35.5 ± 1.83 µM	150 to 152 °C				
CC[C@H](C)[C@H](NC(=O)[C@H](Cc1ccccc1)NC(=O)c1cccc(C(=O)N[C@@H](Cc2ccccc2)C(=O)N[C@H](C(=O)O)[C@@H](C)CC)n1)C(=O)O [Compound 3c, N^α-Dipicolinoyl-bis[L-Phe-L-ILe]acid]	29.6 ± 2.06 µM	26.6 ± 1.85 µM	202 to 204 °C				
CC[C@H](C)[C@H](NC(=O)c1cccc(C(=O)N[C@H](C(=O)N[C@H](C(=O)OC)[C@@H](C)CC)[C@@H](C)CC)n1)C(=O)N[C@H](C(=O)OC)[C@@H](C)CC [Compound 2a, N^α-Dipicolinoyl-bis[L-ILe-L-ILe-methyl ester]]	31.6 ± 1.3 µM	20.4 ± 1.36 µM	106 to 108 °C				
O=c1[nH]cc(F)c(=O)[nH]1 [5-Fluorouracil®, 5-Fluorouracil, reference compound]				43.8 ± 1.84 µM			
CC[C@H](C)[C@H](NC(=O)c1cccc(C(=O)N[C@H](C(=O)N[C@@H](Cc2ccccc2)C(=O)O)[C@@H](C)CC)n1)C(=O)N[C@@H](Cc1ccccc1)C(=O)O [Compound 3b, N^α-Dipicolinoyl-bis[L-ILe-L-Phe]acid]	25.3 ± 1.18 µM	13.5 ± 1.45 µM	184 to 186 °C				
CC[C@H](C)[C@@H]1NC(=O)c2cccc(n2)C(=O)N[C@@H]([C@@H](C)CC)C(=O)N[C@@H]([C@@H](C)CC)C(=O)N[C@H](C(=O)OC)CCCCNC(=O)[C@H]([C@@H](C)CC)NC1=O [Compound 4a, Cyclo-(N^α-dipicolinoyl)-bis-[L-ILe-L-ILe]-L-Lys-OMe]	> 100 µM	11.6 ± 2.7 µM	77 to 79 °C				
CC[C@H](C)[C@@H]1NC(=O)c2cccc(n2)C(=O)N[C@@H]([C@@H](C)CC)C(=O)N[C@@H](Cc2ccccc2)C(=O)N[C@H](C(=O)O)CCCCNC(=O)[C@H](Cc2ccccc2)NC1=O [Compound 5b, Cyclo-(N^α-dipicolinoyl)-bis [L-ILe-L-Phe]-L-Lys-OH]	11.3 ± 1.15 µM	10.1 ± 2.05 µM	128 to 130 °C				
CC[C@H](C)[C@@H]1NC(=O)c2cccc(n2)C(=O)N[C@@H]([C@@H](C)CC)C(=O)N[C@@H]([C@@H](C)CC)C(=O)N[C@H](C(=O)NN)CCCCNC(=O)[C@H]([C@@H](C)CC)NC1=O [Compound 6a, Cyclo-(N^α-dipicolinoyl)-bis[L-ILe-L-ILe]-L-Lys-NHNH2]	11.8 ± 1.62 µM	12.4 ± 1.3 µM	180 to 182 °C				
CC[C@H](C)[C@H](NC(=O)c1cccc(C(=O)N[C@H](C(=O)N[C@@H](Cc2ccccc2)C(=O)OC)[C@@H](C)CC)n1)C(=O)N[C@@H](Cc1ccccc1)C(=O)OC [Compound 2b, N^α-Dipicolinoyl-bis[L-ILe-L-Phe-methyl ester]]	32.6 ± 1.5 µM	15.8 ± 1.66 µM	122 to 124 °C				
CC[C@H](C)[C@@H]1NC(=O)c2cccc(n2)C(=O)N[C@@H]([C@@H](C)CC)C(=O)N[C@@H]([C@@H](C)CC)C(=O)N[C@H](C(=O)O)CCCCNC(=O)[C@H]([C@@H](C)CC)NC1=O [Compound 5a, Cyclo-(N^α-dipicolinoyl)-bis [L-ILe-L-ILe]-L-Lys-OH]	12.7 ± 2.4 µM	11.2 ± 1.95 µM	108 to 110 °C				
CC[C@H](C)[C@@H]1NC(=O)[C@H](Cc2ccccc2)NC(=O)c2cccc(n2)C(=O)N[C@@H](Cc2ccccc2)C(=O)N[C@@H]([C@@H](C)CC)C(=O)N[C@H](C(=O)O)CCCCNC1=O [Compound 5c, Cyclo-(N^α-dipicolinoyl)-bis [L-Phe-L-ILe]-L-Lys-OH]	9.41 ± 1.25 µM	7.53 ± 1.33 µM	178 to 180 °C		0.14 µM	0.08 µM	0.06 µM
CC[C@H](C)[C@@H]1NC(=O)c2cccc(n2)C(=O)N[C@@H]([C@@H](C)CC)C(=O)N[C@@H](Cc2ccccc2)C(=O)N[C@H](C(=O)NN)CCCCNC(=O)[C@H](Cc2ccccc2)NC1=O [Compound 6b, Cyclo-(N^α-dipicolinoyl)-bis[L-ILe-L-Phe]-L-Lys-NHNH2]	10.9 ± 1.1 µM	11.5 ± 1.7 µM	161 to 163 °C				
CC[C@H](C)[C@H](NC(=O)[C@@H](NC(=O)c1cccc(C(=O)N[C@H](C(=O)N[C@H](C(=O)O)[C@@H](C)CC)[C@@H](C)CC)n1)[C@@H](C)CC)C(=O)O [Compound 3a, N^α-Dipicolinoyl-bis[L-ILe-L-ILe]acid]	> 100 µM	26 ± 2.35 µM	178 to 180 °C				
